From US20190169140A1, “IDO1 INHIBITOR AND PREPARATION METHOD AND APPLICATION THEREOF” (SHANDONG LUYE PHARMACEUTICAL CO., LTD., priority 2016, published 2019)

Assays:
[1] = target: T1, IDO1 enzyme in Hela cells (Homo sapiens, UniProt P14902); assay: Test of hIDO1 for cytological activity (Hela cell kynurenine by LCMS, interferon-γ induced); assay type: cell-based; conditions: interferon-γ 100 ng/ml, 20 hours
T1 construct: endogenous in cells; host or cells: Hela cells, induced with recombinant human interferon-γ
T1 sequence (P14902 whole entry): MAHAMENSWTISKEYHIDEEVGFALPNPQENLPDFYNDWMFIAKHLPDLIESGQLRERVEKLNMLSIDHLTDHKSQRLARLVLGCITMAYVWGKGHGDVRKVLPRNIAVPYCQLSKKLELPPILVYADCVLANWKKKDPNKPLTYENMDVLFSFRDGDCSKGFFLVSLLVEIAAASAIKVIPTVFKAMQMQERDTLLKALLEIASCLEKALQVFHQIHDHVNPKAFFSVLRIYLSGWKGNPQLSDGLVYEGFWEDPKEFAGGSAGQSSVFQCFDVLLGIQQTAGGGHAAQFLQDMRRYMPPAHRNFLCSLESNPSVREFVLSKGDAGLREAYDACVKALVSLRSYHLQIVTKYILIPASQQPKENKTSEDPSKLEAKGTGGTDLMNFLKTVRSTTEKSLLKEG
Experimental: 2. Test of hIDO1 for Cytological Activity
Changes in Hela cell kynurenine were detected by an LCMS method. With an IC50 value of a compound as an index, an inhibitory effect of the compound on IDO1 enzyme was evaluated.
The culture medium, trypsin, and DPBS were preheated in water bath at 37° C. The culture medium was removed by sucking from cell culture, followed by cleaning the cell culture with 10 mL of DPBS; the preheated trypsin was added to the culture flask, which was revolved to make the culture flask covered by trypsin uniformly, and placed into an incubator at 37° C. with 5% CO2 for digestion for 1-2 minutes; 10-15 mL of the culture medium was used to suspend cells each T150, followed by centrifugation at 800 rpm for 5 minutes. 10 mL of the culture medium was used to resuspend the cells. 1 mL of the cell resuspension was pipetted, and counted with Vi-cell; the Hela cells were diluted to 5×10^5/mL with the culture medium, 80 μL of the diluted Hela cells were added to the 96-well cell plate, and incubated in the an incubator at 37° C. with 5% CO2 for 5-6 hours.
The compound was diluted with DMSO to 1 mM, with 9 gradients, each 3-fold dilution, in duplicate. 5 μL of the already diluted compound DMSO solution was added to the compound plate containing 95 μL of the culture medium. After even mixing, 10 μL of the mixture was transferred to the cell plate.
10 μL of recombinant human interferon-γ was added to result in a final concentration of 100 ng/ml, to induce expression of IDO1. Incubation was carried out in the 5% CO2 incubator at 37° C. for 20 hours. 4 μL of 5% (w/v) trichloroacetic acid was added, followed by even mixing and incubation at 50° C. for 30 minutes. After centrifugation at 2400 rpm for 10 minutes, 40 μL of a supernatant was added to a 96-well V-bottom plate, followed by addition of a precipitant. Centrifugation was carried out at 4000 rpm for 10 minutes after even mixing. 100 μL of the supernatant was transferred to a new 96-well V-bottom plate. A content of kynurenine was detected through LCMS.
A reference well to which the interferon-γ was added but no compound was added was set to have an inhibition rate of 0%, and a reference well to which no Hela cell was added was set to have an inhibition rate of 100%. Data was analyzed with XLFit 5 to calculate an IC50 value of the compound.

[2] = Test for permeability across Caco2; assay type: in vitro ADME; conditions: human, Caco-2
Experimental: 2. Test for Permeability Across Caco2
A sample for test was dissolved in dimethyl sulfoxide (DMSO) or other suitable solvents, to be prepared into 10 mM stock solution. A suitable internal standard
Fenoterol, propranolol, and digoxin acted as low-permeability control, high-permeability control, and P-gp (P-glycoprotein) substrate, respectively, in the present research. The stock solutions of these compounds were prepared with DMSO, stocked at 2-8° C., and valid for use within 3 months.
In the present project, a Hank's balanced salt buffer containing 10 mM HEPES was used as a transport buffer.
Caco-2 cells were cultivated using MEM culture media (Minimum Essential Media), with a culture condition of 37±1° C., 5% CO2, and saturated relative humidity. Afterwards, the cells were inoculated into a BD Transwell-96-well plate, with an inoculation density of 1×10^5 cells/cm^2, then the cells were placed in a carbon dioxide incubator to be incubated for 21-28 days, and then used for a transport experiment.
The sample for test and digoxin with donation concentration of 2 μM were administered in two directions (direction A-B and direction B-A), each in duplicate. Fenoterol and propranolol each with test concentration of 2 μM were administered in a single direction (direction A-B), each in duplicate.
A solution to be used was placed in a 37±1° C. water bath kettle to be pre-incubated for 30 minutes. The donor solution and the receiver solution were respectively added to corresponding sides of well of cell plate (to each apical sides and each basolateral sides, 75 μL and 250 μL of samples were added respectively), and experiment of bidirectional transport was started. After addition of the samples, the cell plate was placed in a 37±1° C., 5% CO2 incubator with saturated relative humidity to be incubated for 120 minutes.
The samples were all centrifuged at 3220 g for 10 minutes after being shaken in a vortex manner. A suitable volume of a supernatant was transferred to a sample analyzing plate. If analysis was not carried out immediately after the plate was sealed, the plate was stored at 2-8° C. The analysis was carried out through a method of LC/MS/MS.
The sample for test, the fenoterol control, propranolol control, and digoxin were analyzed in a semiquantitative manner, and specific values of analytes to a peak area of the internal standard were taken as concentration of the controls.

[3] = Liver microsome stability, human; assay type: in vitro ADME; conditions: human liver microsomes; for Remaining % (60 min): 37° C.; for CLint scaled: read-out: Intrinsic clearance
Experimental: The purpose of research in the present experiment is assessing phase I metabolic stability of the sample for test in CD-1 mice, SD rats, and human liver microsomes.
The animals and human liver microsomes used in this test system were purchased from BD Gentest, Xenotech, Corning or BioreclamationIVT, and stored in a refrigerator at −80° C. before use.
The sample for test and control were incubated together with the microsomes under a condition of 37° C. for 60 minutes, and a cold acetonitrile solution (or other organic solvents) containing an internal standard substance was added at a designated time point to terminate the reaction. After centrifugation, a resultant supernatant was assayed in a semiquantitative manner through liquid chromatography tandem mass spectrometry (LC/MS/MS). Software Analyst (AB Sciex, Framingham, Mass., USA) was used for processing retention time of analyte and internal standard, and achieving chromatogram collection, and chromatogram integration
An in vitro elimination rate constant ke of the sample was obtained by converting a ratio of the sample to a peak area of the internal standard to remaining percentage, to calculate an in vitro elimination rate and half-life of the sample for test.

Row | SMILES | IC50 [1] | Papp A→B at 120 min, 2 µM [2] | Papp B→A at 120 min, 2 µM [2] | metabolic stability in words [3] | Remaining % (60 min) [3] | CLint scaled [3]
1 | NS(=O)(=O)NCCOc1nonc1/C(=N/O)Nc1ccc(F)c(Br)c1 [Compound 0015] | 14 nM | – | – | – | – | –
2 | NS(=O)(=O)NCCSc1nonc1/C(=N/O)Nc1ccc(F)c(Br)c1 [Compound 0117] | 5.85 nM | 2.97 ×10⁻⁶ cm/s | 12.2 ×10⁻⁶ cm/s | – | – | –
3 | CC(=O)NCCSc1nonc1/C(=N/O)Nc1ccc(F)c(Br)c1 [Compound 0227] | 3.1 nM | – | – | metabolized in a moderate manner | 56.9% | 15.3 mL/min/kg
4 | NC(=O)NCCSc1nonc1/C(=N/O)Nc1ccc(F)c(Br)c1 [Compound 0231] | 4.35 nM | 2.58 ×10⁻⁶ cm/s | 20.1 ×10⁻⁶ cm/s | metabolized in a relatively steady manner | 81.6% | < 8.6 mL/min/kg
5 | NS(=O)(=O)NCCNc1nonc1C(=NO)Nc1ccc(F)c(Br)c1 [Compound 360, INCB024360, reference compound] | – | 0.39 ×10⁻⁶ cm/s | 19.6 ×10⁻⁶ cm/s | – | – | –
